Assay results taken from ChEMBL document CHEMBL3045861, “Synthesis and insecticidal activity of N-tert-butyl-N,N'-diacylhydrazines containing 1,2,3-thiadiazoles” (2011).
Values after ≈ are worked out from the molar mass of the structure shown.

Legend:
Format in all cases: functional
Culex pipiens pallens [1] = experiment: Insecticidal activity against Culex pipiens pallens (mosquito) fourth-instar larvae assessed as insect mortality at 2 ug/mL measured 96 hr post compound exposure
Plutella xylostella [2] = experiment: Insecticidal activity against Plutella xylostella (diamondback moth) second-instar larvae grown on compound treated fresh cabbage leaves assessed as insect mortality at 400 ug/mL measured 96 hr post compound exposure by leaf film feeding method
Plutella xylostella [3] = experiment: Insecticidal activity against Plutella xylostella (diamondback moth) second-instar larvae grown on compound treated fresh cabbage leaves assessed as insect mortality at 200 ug/mL measured 96 hr post compound exposure by leaf film feeding method
Culex pipiens pallens [4] = experiment: Insecticidal activity against Culex pipiens pallens (mosquito) fourth-instar larvae assessed as insect mortality at 0.5 ug/mL measured 96 hr post compound exposure
Culex pipiens pallens [5] = experiment: Insecticidal activity against Culex pipiens pallens (mosquito) fourth-instar larvae assessed as insect mortality at 1 ug/mL measured 96 hr post compound exposure
Plutella xylostella [6] = experiment: Insecticidal activity against Plutella xylostella (diamondback moth) second-instar larvae grown on compound treated fresh cabbage leaves assessed as insect mortality measured 96 hr post compound exposure by leaf film feeding method

Cc1nnsc1C(=O)NN(C(=O)c1cccc([N+](=O)[O-])c1)C(C)(C)C
mortality at 2 µg/mL (Culex pipiens pallens [1]): 30%
mortality at 400 µg/mL (Plutella xylostella [2]): 23%

COc1cccc(C(=O)N(NC(=O)c2snnc2C)C(C)(C)C)c1
mortality at 2 µg/mL (Culex pipiens pallens [1]): 20%
mortality at 200 µg/mL (Plutella xylostella [3]): 37%

Cc1cccc(C(=O)N(NC(=O)c2snnc2C)C(C)(C)C)c1
mortality at 2 µg/mL (Culex pipiens pallens [1]): 20%
mortality at 200 µg/mL (Plutella xylostella [3]): 0%

Cc1nnsc1C(=O)N(NC(=O)c1ccc(Cl)cc1)C(C)(C)C
mortality at 2 µg/mL (Culex pipiens pallens [1]): 20%
mortality at 400 µg/mL (Plutella xylostella [2]): 43%

Cc1nnsc1C(=O)N(NC(=O)c1cccc(C(F)(F)F)c1)C(C)(C)C
mortality at 2 µg/mL (Culex pipiens pallens [1]): 100%
mortality at 200 µg/mL (Plutella xylostella [3]): 32%
mortality at 0.5 µg/mL (Culex pipiens pallens [4]): 0%
mortality at 1 µg/mL (Culex pipiens pallens [5]): 100%

Cc1nnsc1C(=O)NN(C(=O)c1ccccc1Cl)C(C)(C)C
mortality at 2 µg/mL (Culex pipiens pallens [1]): 10%
LC50 (Plutella xylostella [6]): 28 µg/mL (≈ 79.4 µM)
mortality at 200 µg/mL (Plutella xylostella [3]): 79%

COc1ccc(C(=O)N(NC(=O)c2snnc2C)C(C)(C)C)cc1
mortality at 2 µg/mL (Culex pipiens pallens [1]): 10%
mortality at 200 µg/mL (Plutella xylostella [3]): 25%

Cc1nnsc1C(=O)N(NC(=O)c1ccc([N+](=O)[O-])cc1)C(C)(C)C
mortality at 2 µg/mL (Culex pipiens pallens [1]): 30%
mortality at 200 µg/mL (Plutella xylostella [3]): 33%

Cc1nnsc1C(=O)NN(C(=O)c1ccc([N+](=O)[O-])cc1)C(C)(C)C
mortality at 2 µg/mL (Culex pipiens pallens [1]): 10%
mortality at 200 µg/mL (Plutella xylostella [3]): 5%

COc1ccccc1C(=O)N(NC(=O)c1snnc1C)C(C)(C)C
mortality at 2 µg/mL (Culex pipiens pallens [1]): 10%
mortality at 400 µg/mL (Plutella xylostella [2]): 30%

Cc1ccccc1C(=O)NN(C(=O)c1snnc1C)C(C)(C)C
mortality at 2 µg/mL (Culex pipiens pallens [1]): 100%
mortality at 200 µg/mL (Plutella xylostella [3]): 68%
mortality at 0.5 µg/mL (Culex pipiens pallens [4]): 30%
mortality at 1 µg/mL (Culex pipiens pallens [5]): 100%

Cc1nnsc1C(=O)N(NC(=O)c1ccc(C(F)(F)F)cc1)C(C)(C)C
mortality at 2 µg/mL (Culex pipiens pallens [1]): 40%
mortality at 200 µg/mL (Plutella xylostella [3]): 13%

Cc1ccc(C(=O)NN(C(=O)c2snnc2C)C(C)(C)C)cc1
mortality at 2 µg/mL (Culex pipiens pallens [1]): 0%
mortality at 200 µg/mL (Plutella xylostella [3]): 37%

Cc1nnsc1C(=O)NN(C(=O)c1cccc(C(F)(F)F)c1)C(C)(C)C
mortality at 2 µg/mL (Culex pipiens pallens [1]): 40%
mortality at 200 µg/mL (Plutella xylostella [3]): 46%

Cc1nnsc1C(=O)N(NC(=O)c1cccc(Cl)c1)C(C)(C)C
mortality at 2 µg/mL (Culex pipiens pallens [1]): 0%
mortality at 200 µg/mL (Plutella xylostella [3]): 25%

Cc1nnsc1C(=O)NN(C(=O)c1ccc(C(F)(F)F)cc1)C(C)(C)C
mortality at 2 µg/mL (Culex pipiens pallens [1]): 30%
mortality at 200 µg/mL (Plutella xylostella [3]): 5%

Cc1nnsc1C(=O)N(NC(=O)c1ccccc1[N+](=O)[O-])C(C)(C)C
mortality at 2 µg/mL (Culex pipiens pallens [1]): 20%
mortality at 200 µg/mL (Plutella xylostella [3]): 16%

COc1ccccc1C(=O)NN(C(=O)c1snnc1C)C(C)(C)C
mortality at 2 µg/mL (Culex pipiens pallens [1]): 10%
mortality at 200 µg/mL (Plutella xylostella [3]): 29%

Cc1nnsc1C(=O)NN(C(=O)c1ccc(Cl)cc1)C(C)(C)C
mortality at 2 µg/mL (Culex pipiens pallens [1]): 100%
mortality at 200 µg/mL (Plutella xylostella [3]): 25%
mortality at 0.5 µg/mL (Culex pipiens pallens [4]): 10%
mortality at 1 µg/mL (Culex pipiens pallens [5]): 100%

Cc1nnsc1C(=O)N(NC(=O)c1cccc([N+](=O)[O-])c1)C(C)(C)C
mortality at 2 µg/mL (Culex pipiens pallens [1]): 10%
mortality at 200 µg/mL (Plutella xylostella [3]): 34%

COc1cccc(C(=O)NN(C(=O)c2snnc2C)C(C)(C)C)c1
mortality at 2 µg/mL (Culex pipiens pallens [1]): 10%
mortality at 400 µg/mL (Plutella xylostella [2]): 10%

Cc1nnsc1C(=O)NN(C(=O)c1cccc(Cl)c1)C(C)(C)C
mortality at 2 µg/mL (Culex pipiens pallens [1]): 30%
mortality at 200 µg/mL (Plutella xylostella [3]): 0%

Cc1ccccc1C(=O)N(NC(=O)c1snnc1C)C(C)(C)C
mortality at 2 µg/mL (Culex pipiens pallens [1]): 20%
mortality at 200 µg/mL (Plutella xylostella [3]): 8%

COc1ccc(C(=O)NN(C(=O)c2snnc2C)C(C)(C)C)cc1
mortality at 2 µg/mL (Culex pipiens pallens [1]): 10%
mortality at 400 µg/mL (Plutella xylostella [2]): 28%

Cc1cccc(C(=O)NN(C(=O)c2snnc2C)C(C)(C)C)c1
mortality at 2 µg/mL (Culex pipiens pallens [1]): 20%
mortality at 200 µg/mL (Plutella xylostella [3]): 12%

CCc1ccc(C(=O)NN(C(=O)c2cc(C)cc(C)c2)C(C)(C)C)cc1 [TEBUFENOZIDE]
mortality at 2 µg/mL (Culex pipiens pallens [1]): 100%
LC50 (Plutella xylostella [6]): 26 µg/mL (≈ 73.8 µM)
mortality at 200 µg/mL (Plutella xylostella [3]): 40%
mortality at 0.5 µg/mL (Culex pipiens pallens [4]): 60%
mortality at 1 µg/mL (Culex pipiens pallens [5]): 100%

Cc1nnsc1C(=O)N(NC(=O)c1ccccc1Cl)C(C)(C)C
mortality at 2 µg/mL (Culex pipiens pallens [1]): 20%
mortality at 200 µg/mL (Plutella xylostella [3]): 24%

Cc1nnsc1C(=O)NN(C(=O)c1ccccc1[N+](=O)[O-])C(C)(C)C
mortality at 2 µg/mL (Culex pipiens pallens [1]): 10%
mortality at 400 µg/mL (Plutella xylostella [2]): 45%

Cc1ccc(C(=O)N(NC(=O)c2snnc2C)C(C)(C)C)cc1
mortality at 2 µg/mL (Culex pipiens pallens [1]): 10%
mortality at 200 µg/mL (Plutella xylostella [3]): 15%

Cc1nnsc1C(=O)NN(C(=O)c1ccccc1C(F)(F)F)C(C)(C)C
mortality at 2 µg/mL (Culex pipiens pallens [1]): 10%
mortality at 200 µg/mL (Plutella xylostella [3]): 15%
